{"source": "patent US20120108636A1", "about": "“Allosteric Enhancers of th A1 Adenosine Receptor” (King Pharmaceuticals Research and Development, Inc., priority 2008, published 2012)", "key": {"[1]": {"target": "T1, human A1 receptors expressed in CHO membranes (Homo sapiens, UniProt P30542)", "T1 construct": "expressed in transfected cells; host or cells: CHO cells (hCHO-A1 clone), membrane preparation", "T1 sequence (P30542 1-326)": "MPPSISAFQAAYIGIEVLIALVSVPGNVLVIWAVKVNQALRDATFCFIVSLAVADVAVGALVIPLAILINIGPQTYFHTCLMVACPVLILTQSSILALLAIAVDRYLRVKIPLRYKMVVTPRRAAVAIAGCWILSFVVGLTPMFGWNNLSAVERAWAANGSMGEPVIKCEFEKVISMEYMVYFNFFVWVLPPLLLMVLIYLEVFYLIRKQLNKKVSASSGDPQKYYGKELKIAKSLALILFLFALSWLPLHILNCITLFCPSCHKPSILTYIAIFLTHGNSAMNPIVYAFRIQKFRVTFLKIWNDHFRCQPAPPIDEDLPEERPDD", "test": "Saturation binding of [3H]CCPA to hCHO-A1", "conditions": "compound tested at 10 μM concentration", "method": "(§1) Membrane Preparation from CHO Cells Transfected with the Human Recombinant A1, A2A and A3 Adenosine Receptors\n(§2) The hCHO-A1, hCHO-A2A and hCHO-A3 cell clones are grown adherently and maintained in Dulbecco's modified Eagle's medium with nutrient mixture F12, containing 10% fetal calf serum, penicillin (100 U/mL), streptomycin (100 μg/mL), L-glutamine (2 mM), geneticine (G418) 0.2mg/mL at 37° C. in 5% CO2/95% air. 30 min at 37° C. (Klotz et al. Naunyn-Schmied. Arch Pharm. 1998, 357, 1-9). Cells are split two or three times weekly at a ratio of between 1:5 and 1:10. For membrane preparation the culture medium is removed. The cells are washed with PBS and scraped off T75 flasks in ice-cold hypotonic buffer (5 mM Tris HCl, 2 mM EDTA, pH 7.4). The cell suspension is homogenized with Polytron and the homogenate is spun for 10 min at 1,000×g. The supernatant is then centrifuged for 30 min at 100,000×g. The membrane pellet is resuspended in 50 mM Tris HCl buffer pH 7.4 for The A1 adenosine receptors, 50 mM Tris HCl buffer pH 7.4, 10 mM MgCl2 for A2A adenosine receptors, 50 mM Tris HCl buffer pH 7.4, 10 mM MgCl2, 1 mM EDTA for A3 adenosine receptors and incubated with 3 Ul/mL of adenosine deaminase for 30 min at 37° C. The protein concentration is determined according to a Bio-Rad method (Bradford, 1976) with bovine albumin as a standard reference.\n(§3) To determine the effect of the compounds of the present invention on the binding to A1, A2A and A3 receptors, membranes from hCHO-A1, hCHO-A2A, hCHO-A3 are incubated in a buffer solution in the absence and in the presence of the examined compounds. Test agents are dissolved in DMSO and added to the assay from a 100-fold concentrated solution in DMSO. Control incubations also contain 1% DMSO. Bound and free radioactivity are separated by filtering the assay mixture through Whatman GF/B glass fibre filters using a Micro-mate 196 cell harvester (Packard Instrument Company). The filter bound radioactivity is counted on Top Count Microplate Scintillation Counter (efficacy 57%) with Micro-Scint 20.\nSaturation Binding of [^3H]CCPA to hCHO-A1 […]"}, "[2]": {"target": "T1, human A1 receptors expressed in CHO membranes", "test": "Allosteric enhancement of specific binding of [3H]CCPA to hCHO-A1 membranes", "conditions": "compound tested at 10 μM concentration", "method": "as §1\nas §2, with “The membrane pellet is resuspended in 50 mM Tris HCl buffer pH 7.4 for The A1 adenosine receptors, 50 mM Tris HCl buffer pH 7.4, 10 mM MgCl2 for A2A adenosine receptors, 50 mM Tris HCl buffer pH 7.4, 10 mM MgCl2, 1 mM EDTA for A3 adenosine receptors and incubated with 3 Ul/mL of adenosine deaminase for 30 min at 37° C.” left out\nas §3, with “Test agents are dissolved in DMSO and added to the assay from a 100-fold concentrated solution in DMSO. Control incubations also contain 1% DMSO.” left out, “20. […]” for “20.”\nCompetition experiments are carried out in triplicate in a final volume of 250 μL in test tubes containing 1 nM [^3H]CCPA, 50 mM Tris-HCl, pH 7.4 and 100 μL of diluted membranes and at least six to eight different concentrations of the tested compounds in the range from 1 nM to 50 μM for 90 min at 25° C. […] Allosteric enhancement is measured as the action of different concentrations of the tested compounds to increase the specific binding of 1 nM [^3H]CCPA to hCHO-A1 membranes."}}, "data": [{"smiles": "CC(C)(C)CN(Cc1c(-c2ccccc2)sc(N)c1C(=O)c1ccc(Cl)cc1)CC(C)(C)C", "note": "[Example 16-9, {2-Amino-4-[(dineopentylamino)methyl]-5-phenylthiophen-3-yl}(4-chlorophenyl)methanone]", "values": [{"measurement": "increase in the BMAX value of the agonist [3H]CCPA", "setting": "[1]", "value": "~6.3", "unit": "fold"}, {"measurement": "increase of the A1 specific binding of the agonist [3H]CCPA to human CHO-A1 membranes", "setting": "[2]", "value": "≤ 5.5", "unit": "fold"}]}, {"smiles": "Nc1sc(-c2ccccc2)c(CN(C2CCCCC2)C2CCCCC2)c1C(=O)c1ccc(Cl)cc1", "note": "[Example 2, {2-Amino-4-[(dicyclohexylamino)methyl]-5-phenyithiophen-3-yl}(4-chlorophenyl)methanone]", "values": [{"measurement": "increase in the BMAX value of the agonist [3H]CCPA", "setting": "[1]", "value": "about 3.5 fold"}, {"measurement": "increase of the A1 specific binding of the agonist [3H]CCPA to human CHO-A1 membranes", "setting": "[2]", "value": "up to 4.4 fold"}]}, {"smiles": "Nc1sc(-c2cccs2)c(CN(C2CCCCC2)C2CCCCC2)c1C(=O)c1ccc(Cl)cc1", "note": "[Example 30, {2-Amino-4-[(dicyclohexylamino)methyl]-5-(thiophen-2-yl)thiophen-3-yl}(4-chlorophenyl)methanone]", "values": [{"measurement": "melting point", "value": "197 to 199", "unit": "°C"}, {"measurement": "increase in the BMAX value of the agonist [3H]CCPA", "setting": "[1]", "value": "~4.6", "unit": "fold"}, {"measurement": "increase of the A1 specific binding of the agonist [3H]CCPA to human CHO-A1 membranes", "setting": "[2]", "value": "≤ 4.2", "unit": "fold"}]}]}
